Data from US20070219245A1, “METHOD OF USE FOR SUBSTITUTED DIPIPERIDINE CCR2 ANTAGONISTS” (priority 2006, published 2007).

Assays:
Type in all cases: in vivo
DIO mice = experiment: Diet induced obesity (DIO) model, treatment arm TA1 (high fat diet); conditions: for Body Weight Gain / Change in Fat Mass / Change in Lean Mass / Change in Water / Food Intake / Plasma MCP-1: TA1 DIO mice, high fat diet, mean ± SEM
Protocol: (§1) In a diet induced obesity (DIO) model in mice, two treatment arms of mice were tested. In the first treatment arm (TA1), DIO mice in four treatment groups (treated: 25 mg/kg, 50 mg/kg and 100 mg/kg and non-treated vehicle control) were fed a high fat diet. In the second treatment arm (TA2), lean mice in two treatment groups (treated: 100 mg/kg and non-treated vehicle control) were fed a regular chow diet. After 7 days acclimation to the diet, the treated groups in each arm were dosed (0.1 mL, ip, bid) with a test compound from Day 1 to Day 28 of the study. After 7 days acclimation to the diet, the non-treated groups in each arm were dosed (0.1 mL, ip, bid) with vehicle from Day 1 to Day 28 of the study. Body weight was monitored twice per week and on Day 28. After sacrifice, blood glucose, body weight, body mass, serum MCP-1 and insulin levels were also recorded. MCP-1 was measured by ELISA. The statistical analysis for p value was performed using the program Prism (Graphpad, Monrovia, Calif.) with the Student t-test (unpaired). All data are presented as the mean ± standard error of the mean (SEM).

lean mice = experiment: Diet induced obesity model, treatment arm TA2 (lean mice, regular chow diet); conditions: 100 mg/kg ip bid Day 1-28, mean ± SEM
Protocol: as §1

NON (NONcNZO10/LtJ) mice [1] = experiment: Insulin sensitivity model: insulin tolerance test; conditions: for Blood Glucose: mean ± SEM
Protocol: (§2) In an insulin sensitivity model in mice, four month old male NON (NONcNZO10/LtJ) mice in four treatment groups (treated: 25 mg/kg, 50 mg/kg and 100 mg/kg and non-treated vehicle control) were fed LabDiet® 5K20 for 28 days. The treated groups were dosed (0.1 mL, ip, bid) with a test compound from Day 1 to Day 28. The non-treated group was dosed (0.1 mL, ip, q.d.) with vehicle from Day 1 to Day 28. Body weight and blood glucose were monitored once per week and an insulin tolerance test was performed by i.p. injection of […] insulin, then fed blood glucose levels were measured at 0, 15, 30, 60, 90, and 120 min after insulin administration. The insulin tolerance test blood glucose levels at the time points the sample were taken after insulin administration are shown in Table 5. Blood glucose levels were measured using a Glucometer. MCP-1 and insulin were measured by ELISA. Plasma glucose and FFA were measured using Weko kits. The statistical analysis for p value was performed using the program Prism (Graphpad, Monrovia, Calif.) with the Student t-test (unpaired). All data are presented as the mean ± standard error of the mean (SEM).

NON (NONcNZO10/LtJ) mice [2] = experiment: Insulin sensitivity model: Day 28 blood samples and body weight; conditions: for Blood HbA1c / Body Weight / Plasma FFA / Plasma Glucose / Plasma Insulin / Plasma MCP-1: mean ± SEM
Protocol: as §2, with “5. After sacrifice on Day 28, blood samples were collected to measure HbA1c, plasma levels of glucose, plasma insulin, FFA (free fatty acids) and MCP-1.” for “5.”

O=C(O)[C@H](C1CCN(C(=O)/C=C/c2cc(F)c(F)c(F)c2)CC1)N1CCC(c2c[nH]c3ccccc23)CC1 [(S)-{[4-(1H-indol-3-yl)-piperidin-1-yl]}-{1-[(2E)-3-(3,4,5-trifluoro-phenyl)-acryloyl]-piperidin-4-yl}-acetic acid]
body fat mass gain (DIO mice; DIO model in mice): significantly reduced | lean mass (DIO mice; DIO model in mice): no change | weight gain (DIO mice; DIO model in mice): significantly reduced | Body Weight Gain (DIO mice; 25 mg/kg ip bid Day 1-28): 3.8 ± 1.2 g | Change in Fat Mass (DIO mice; 25 mg/kg ip bid Day 1-28): 0.9 ± 0.7 g | Change in Lean Mass (DIO mice; 25 mg/kg ip bid Day 1-28): 3.1 ± 0.9 g | Change in Water (DIO mice; 25 mg/kg ip bid Day 1-28): 2.8 ± 0.8 g | Food Intake (DIO mice; 25 mg/kg ip bid Day 1-28): 14.0 ± 1.6 g/7 days | Plasma MCP-1 (DIO mice; 25 mg/kg ip bid Day 1-28): 69.2 ± 5.6 pg/mL | Body Weight Gain (DIO mice; 50 mg/kg ip bid Day 1-28): 3.4 ± 1.1 g | Change in Fat Mass (DIO mice; 50 mg/kg ip bid Day 1-28): 0.4 ± 0.6 g | Change in Lean Mass (DIO mice; 50 mg/kg ip bid Day 1-28): 4.9 ± 0.9 g | Change in Water (DIO mice; 50 mg/kg ip bid Day 1-28): 4.5 ± 0.8 g | Food Intake (DIO mice; 50 mg/kg ip bid Day 1-28): 13.5 ± 1.8 g/7 days | Plasma MCP-1 (DIO mice; 50 mg/kg ip bid Day 1-28): 98.3 ± 7.6 pg/mL | Body Weight Gain (DIO mice; 100 mg/kg ip bid Day 1-28): 2.3 ± 1.8 g | Change in Fat Mass (DIO mice; 100 mg/kg ip bid Day 1-28): 0.2 ± 0.3 g | Change in Lean Mass (DIO mice; 100 mg/kg ip bid Day 1-28): 3.4 ± 0.3 g | Change in Water (DIO mice; 100 mg/kg ip bid Day 1-28): 2.9 ± 0.3 g | Food Intake (DIO mice; 100 mg/kg ip bid Day 1-28): 14.5 ± 3.6 g/7 days | Plasma MCP-1 (DIO mice; 100 mg/kg ip bid Day 1-28): 503.5 ± 69.7 pg/mL | Body Weight Gain (lean mice): 2.3 ± 1.5 g | Change in Fat Mass (lean mice): 0.6 ± 0.3 g | Change in Lean Mass (lean mice): 3.4 ± 0.8 g | Change in Water (lean mice): 3.1 ± 0.7 g | Food Intake (lean mice): 22.8 ± 1.7 g/7 days | Plasma MCP-1 (lean mice): 646.8 ± 112.5 pg/mL | Blood Glucose (NON (NONcNZO10/LtJ) mice [1]; Day 7, 25 mg/kg ip bid, 0 min after insulin): 333 ± 44 mg/dL | Blood Glucose (NON (NONcNZO10/LtJ) mice [1]; Day 7, 25 mg/kg ip bid, 15 min after insulin): 213 ± 40 mg/dL | Blood Glucose (NON (NONcNZO10/LtJ) mice [1]; Day 7, 25 mg/kg ip bid, 30 min after insulin): 157 ± 27 mg/dL | Blood Glucose (NON (NONcNZO10/LtJ) mice [1]; Day 7, 25 mg/kg ip bid, 60 min after insulin): 146 ± 21 mg/dL | Blood Glucose (NON (NONcNZO10/LtJ) mice [1]; Day 7, 25 mg/kg ip bid, 90 min after insulin): 146 ± 18 mg/dL | Blood Glucose (NON (NONcNZO10/LtJ) mice [1]; Day 7, 25 mg/kg ip bid, 120 min after insulin): 164 ± 23 mg/dL | Blood Glucose (NON (NONcNZO10/LtJ) mice [1]; Day 7, 50 mg/kg ip bid, 0 min after insulin): 325 ± 54 mg/dL | Blood Glucose (NON (NONcNZO10/LtJ) mice [1]; Day 7, 50 mg/kg ip bid, 15 min after insulin): 213 ± 51 mg/dL | Blood Glucose (NON (NONcNZO10/LtJ) mice [1]; Day 7, 50 mg/kg ip bid, 30 min after insulin): 136 ± 20 mg/dL | Blood Glucose (NON (NONcNZO10/LtJ) mice [1]; Day 7, 50 mg/kg ip bid, 60 min after insulin): 115 ± 13 mg/dL | Blood Glucose (NON (NONcNZO10/LtJ) mice [1]; Day 7, 50 mg/kg ip bid, 90 min after insulin): 115 ± 8 mg/dL | Blood Glucose (NON (NONcNZO10/LtJ) mice [1]; Day 7, 50 mg/kg ip bid, 120 min after insulin): 142 ± 8 mg/dL | Blood Glucose (NON (NONcNZO10/LtJ) mice [1]; Day 7, 100 mg/kg ip bid, 0 min after insulin): 230 ± 22 mg/dL | Blood Glucose (NON (NONcNZO10/LtJ) mice [1]; Day 7, 100 mg/kg ip bid, 15 min after insulin): 141 ± 16 mg/dL | Blood Glucose (NON (NONcNZO10/LtJ) mice [1]; Day 7, 100 mg/kg ip bid, 30 min after insulin): 105 ± 9 mg/dL | Blood Glucose (NON (NONcNZO10/LtJ) mice [1]; Day 7, 100 mg/kg ip bid, 60 min after insulin): 82 ± 8 mg/dL | Blood Glucose (NON (NONcNZO10/LtJ) mice [1]; Day 7, 100 mg/kg ip bid, 90 min after insulin): 83 ± 7 mg/dL | Blood Glucose (NON (NONcNZO10/LtJ) mice [1]; Day 7, 100 mg/kg ip bid, 120 min after insulin): 98 ± 8 mg/dL | Blood Glucose (NON (NONcNZO10/LtJ) mice [1]; Day 21, 25 mg/kg ip bid, 0 min after insulin): 465 ± 34 mg/dL | Blood Glucose (NON (NONcNZO10/LtJ) mice [1]; Day 21, 25 mg/kg ip bid, 15 min after insulin): 367 ± 51 mg/dL | Blood Glucose (NON (NONcNZO10/LtJ) mice [1]; Day 21, 25 mg/kg ip bid, 30 min after insulin): 247 ± 53 mg/dL | Blood Glucose (NON (NONcNZO10/LtJ) mice [1]; Day 21, 25 mg/kg ip bid, 60 min after insulin): 209 ± 56 mg/dL | Blood Glucose (NON (NONcNZO10/LtJ) mice [1]; Day 21, 25 mg/kg ip bid, 90 min after insulin): 198 ± 51 mg/dL | Blood Glucose (NON (NONcNZO10/LtJ) mice [1]; Day 21, 25 mg/kg ip bid, 120 min after insulin): 237 ± 43 mg/dL | Blood Glucose (NON (NONcNZO10/LtJ) mice [1]; Day 21, 50 mg/kg ip bid, 0 min after insulin): 434 ± 71 mg/dL | Blood Glucose (NON (NONcNZO10/LtJ) mice [1]; Day 21, 50 mg/kg ip bid, 15 min after insulin): 303 ± 56 mg/dL | Blood Glucose (NON (NONcNZO10/LtJ) mice [1]; Day 21, 50 mg/kg ip bid, 30 min after insulin): 186 ± 32 mg/dL | Blood Glucose (NON (NONcNZO10/LtJ) mice [1]; Day 21, 50 mg/kg ip bid, 60 min after insulin): 162 ± 37 mg/dL | Blood Glucose (NON (NONcNZO10/LtJ) mice [1]; Day 21, 50 mg/kg ip bid, 90 min after insulin): 168 ± 47 mg/dL | Blood Glucose (NON (NONcNZO10/LtJ) mice [1]; Day 21, 50 mg/kg ip bid, 120 min after insulin): 214 ± 49 mg/dL | Blood Glucose (NON (NONcNZO10/LtJ) mice [1]; Day 21, 100 mg/kg ip bid, 0 min after insulin): 332 ± 38 mg/dL | Blood Glucose (NON (NONcNZO10/LtJ) mice [1]; Day 21, 100 mg/kg ip bid, 15 min after insulin): 247 ± 28 mg/dL | Blood Glucose (NON (NONcNZO10/LtJ) mice [1]; Day 21, 100 mg/kg ip bid, 30 min after insulin): 152 ± 15 mg/dL | Blood Glucose (NON (NONcNZO10/LtJ) mice [1]; Day 21, 100 mg/kg ip bid, 60 min after insulin): 144 ± 21 mg/dL | Blood Glucose (NON (NONcNZO10/LtJ) mice [1]; Day 21, 100 mg/kg ip bid, 90 min after insulin): 158 ± 28 mg/dL | Blood Glucose (NON (NONcNZO10/LtJ) mice [1]; Day 21, 100 mg/kg ip bid, 120 min after insulin): 228 ± 43 mg/dL | blood glucose control (NON (NONcNZO10/LtJ) mice [1]; NON mice): improved | insulin sensitivity (NON (NONcNZO10/LtJ) mice [1]; NON mice): increased | Blood HbA1c (NON (NONcNZO10/LtJ) mice [2]; Day 28, 25 mg/kg ip bid): 6.6 ± 0.5% | Body Weight (NON (NONcNZO10/LtJ) mice [2]; Day 28, 25 mg/kg ip bid): 45.2 ± 1.4 g | Plasma FFA (NON (NONcNZO10/LtJ) mice [2]; Day 28, 25 mg/kg ip bid): 1.2 ± 0.4 mM | Plasma Glucose (NON (NONcNZO10/LtJ) mice [2]; Day 28, 25 mg/kg ip bid): 413 ± 52 mg/dL | Plasma Insulin (NON (NONcNZO10/LtJ) mice [2]; Day 28, 25 mg/kg ip bid): 5.8 ± 0.7 ng/mL | Plasma MCP-1 (NON (NONcNZO10/LtJ) mice [2]; Day 28, 25 mg/kg ip bid): 56.6 ± 3.0 pg/mL | Blood HbA1c (NON (NONcNZO10/LtJ) mice [2]; Day 28, 50 mg/kg ip bid): 6.7 ± 0.7% | Body Weight (NON (NONcNZO10/LtJ) mice [2]; Day 28, 50 mg/kg ip bid): 42.6 ± 0.8 g | Plasma FFA (NON (NONcNZO10/LtJ) mice [2]; Day 28, 50 mg/kg ip bid): 1.0 ± 0.2 mM | Plasma Glucose (NON (NONcNZO10/LtJ) mice [2]; Day 28, 50 mg/kg ip bid): 358 ± 58 mg/dL | Plasma Insulin (NON (NONcNZO10/LtJ) mice [2]; Day 28, 50 mg/kg ip bid): 5.4 ± 0.9 ng/mL | Plasma MCP-1 (NON (NONcNZO10/LtJ) mice [2]; Day 28, 50 mg/kg ip bid): 177.4 ± 63.4 pg/mL | Blood HbA1c (NON (NONcNZO10/LtJ) mice [2]; Day 28, 100 mg/kg ip bid): 5.0 ± 0.2 % | Body Weight (NON (NONcNZO10/LtJ) mice [2]; Day 28, 100 mg/kg ip bid): 43.6 ± 0.9 g | Plasma FFA (NON (NONcNZO10/LtJ) mice [2]; Day 28, 100 mg/kg ip bid): 0.6 ± 0.1 mM | Plasma Glucose (NON (NONcNZO10/LtJ) mice [2]; Day 28, 100 mg/kg ip bid): 190 ± 15 mg/dL | Plasma Insulin (NON (NONcNZO10/LtJ) mice [2]; Day 28, 100 mg/kg ip bid): 7.9 ± 1.1 ng/mL | Plasma MCP-1 (NON (NONcNZO10/LtJ) mice [2]; Day 28, 100 mg/kg ip bid): 555.6 ± 104.5 pg/mL | HbA1c levels (NON (NONcNZO10/LtJ) mice [2]; NON mice): significantly reduced | body weight between treated and non-treated groups (NON (NONcNZO10/LtJ) mice [2]; NON mice): without a significant difference
